“Also recorded” adds a separate entry of the source. No end group written: not given here.
Key:
[1] = test system: cultured bone marrow-derived macrophages; assay: TLQP-21-elicited intracellular Ca2+ increase in cultured macrophages (Fluo-4); assay type: cell-based; conditions: for increase in intracellular Ca2+ levels: 100 nM peptide, cultured macrophages, Fluo-4
Procedure: (§1) Cell images show the Fluo-4 fluorescence associated with different time points during the recording.
(§2) A possible explanation for the absence of a Ca2+ response from a second application of TLQP-21 is that there is a biological de-sensitisation occurring such as phosphorylation of the receptor. It is also possible that this could be due to depletion of Ca2+ in internal stores such as ER, however, this is less likely because the de-sensitisation occurs even with sufficient time (2 hours) to recover and replenish the Ca2+, and ATP treatment gave an increase in intracellular Ca2+ levels. Actually this de-sensitisation by TLQP-21 has also been observed in cerebellar granule cells.
These peptides were either commercially sourced or provided by Neusentis/Pfizer. The effects of VGF peptides on sensory neurons was analysed using whole-cell current-clamp recordings on cultured DRG neurons. Responses of cells to depolarising current pulses will be analysed before and after superfusion of peptides and their efficacy and potency established. The nociceptive phenotype of the cells was confirmed by superfusing capsaicin to the cells at the end of the recordings, and analysing the action potential and current threshold of the cells. Based on our pilot data with LQEQ-19, we expected that some of these peptides will increase the activity of nociceptive neurons. The activation of microglia and macrophage was studied on two parameters, intracellular Ca^2+ increase and P38 MAP kinase phosphorylation. The phosphorylation levels of P38 MAP kinase was investigated as shown before^20. Once we identified peptides capable of activating sensory neurons and/or microglia/macrophage, confirmed the specific effects using scrambled peptides.

paw withdrawal threshold = assay: Intraplantar (hind paw) injection of peptide-treated macrophages, Von Frey paw withdrawal threshold; assay type: in vivo, rat
Procedure: FIG. 6A-C Intraplantar injection of macrophages stimulated with TLQP-21 can evoke mechanical hypersensitivity, and anti-gC1qR antibody reverses mechanical hypersensitivity in partial sciatic nerve ligation (PSNL) model. a, 80,000 macrophages treated with 100 nM TLQP-21 (closed circle) and scrambled TLQP-21 (open circle) for 24 hours have been intraplantarly injected into 3 weeks old male rats. Mechanical sensitivity was examined by electrical Von Frey test. […] C, Time course of paw withdrawal thresholds to Von Frey mechanical stimulation on an left hind paw of PSNL model rats. The left sciatic nerve was exposed, tied with non-absorbable silk thread, and wrapped loosely with a oxidized regenerated cellulose previously soaked in 200 μl of PBS (open triangle) or PBS containing 25 μg of anti-gC1qR (closed circle) or control antibodies (open circle). […] Mean±s.e.m. *P<0.05 vs controls.
Macrophages were treated with either 100 nM TLQP-21 or 100 nM scrambled TLQP-21 for 24 hours in culture. Following wash with PBS, macrophages (35,000 cells in 50 μl) were injected into the left hind paw. Ipsilateral paw withdrawal latency to Von Frey mechanical stimulation was measured at 1, 2, and 3 days after injection (n=9).
We hypothesised that macrophages stimulated by TLQP-21 affects sensory neurons and alter the mechanical sensitivity. We tested this hypothesis by measuring paw withdrawal thresholds in normal rats after hind paw injection of cultured macrophages that had been pre-treated with either TLQP-21 or ScrTLQP-21 for 24 hours. […] This effect lasted for 48 hours after injection. […] We then examined if in vivo application of the neutralising gC1qR antibody can prevent or delay development of neuropathic pain in PSNL model rats. The gC1qR antibody was applied to the site next to nerve ligation, in a cellulose membrane soaked form.

cultured brain microglia = assay: Intracellular Ca2+ increase in cultured brain microglia; assay type: cell-based, rat; conditions: 100 nM
Procedure: as §1, §2
(§3) Ccl11 has been linked to inflammation^23, while Cxcl9 is known as a natural antagonist to Ccl11 receptor CCR3^24. We then used Sulfo-EMCS-conjugated TLQP-21 to purify and identify receptor(s) for TLQP-21. […] The membrane fractions of rat brain was incubated with the crosslinker-conjugated TLQP-21, and analysed by Tricine-PAGE and Western blotting using Streptavidin-HRP for the biotin tag on TLQP-21. […] The membrane fraction of rat brain was applied to a TLQP-21 attached column, and the elutions were analysed on SDS-PAGE and silver staining for direct comparison to the negative control (without TLQP-21). […] The ˜30 kDa bands from both gels were cut out, trypsinised and analysed using LC-MS/MS Orbitrap.

gC1qR = target: T1, gC1qR (Rattus norvegicus, UniProt O35796); assay: Receptor identification by chemical cross-linking / monomeric avidin column and LC-MS/MS; assay type: binding; conditions: rat brain / spinal cord membrane fractions; ~30 kDa band identified by LC-MS/MS
T1 construct: from tissue; host or cells: membrane fractions of rat brain (P4) and of 6 weeks old rat brain and spinal cord
T1 sequence (O35796 72-279): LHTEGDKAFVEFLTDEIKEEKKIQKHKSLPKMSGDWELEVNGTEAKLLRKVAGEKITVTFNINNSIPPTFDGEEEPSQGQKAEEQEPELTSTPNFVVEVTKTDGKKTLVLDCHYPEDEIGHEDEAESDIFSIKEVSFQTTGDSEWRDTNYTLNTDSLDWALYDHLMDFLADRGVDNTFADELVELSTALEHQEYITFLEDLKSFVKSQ
Procedure: FIG. 3A-F gC1qR is the receptor for TLQP-21. a, Biotinylated TLQP-21 was conjugated to Sulfo-EMCS cross-linker, and applied to membrane fractions of 6 weeks old rat brain and spinal cord for cross-linking (boric acid buffer, pH 8, with 150 mM NaCl, 3 hours incubation on ice). The reaction was terminated using 50 mM Tris buffer, and samples were ethanol precipitated and resolved using Tricine-PAGE and visualised by Western blot analysis by streptavidin-horse radish peroxidase. […] C, The ˜30 kDa band was analysed by LC-MS/MS Orbitrap following trypsinisation.
as §3, with “CCR3^24.” for “CCR3^24. We then used Sulfo-EMCS-conjugated TLQP-21 to purify and identify receptor(s) for TLQP-21.”, “Orbitrap. […]” for “Orbitrap.”
To elucidate the identity of the ˜30 kDa protein, which were apparent in two different experiments, the protein band from the monomeric avidin experiment was analysed using LC-MS/MS Orbitrap. […]

[2] = test system: chemokines Ccl11 and Cxcl9 in microglia; assay: PCR array of chemokine expression in microglia upon TLQP-21 stimulation; assay type: cell-based
[3] = test system: ipsilateral hind limb mechanical sensitivity; assay: Intraplantar injection of LQEQ-19, sensitivity to mechanical stimuli; assay type: in vivo, rat; conditions: 275 microgram
Text: (§4) On the other hand, another VGF-derived peptide LQEQ-19 seems to have a direct role on DRG neurons. […] In summary, there are at least three active VGF peptides involved in pain pathways, i.e., TLQP-62, TLQP-21 and LQEQ-19, and four types of cells, namely, spinal microglia, macrophage, nociceptive DRG neurons, and dorsal horn neurons, which respond to these peptides. In this project we will focus on the putative role of VGF peptides in regulating the activity/excitability of DRG neurons and the novel VGF-induced signaling pathway in microglia/macrophage.

[4] = test system: nociceptors (C-fibre component of compound action potentials in dorsal roots); assay: Compound action potential recordings in dorsal roots after application to DRG; conditions: application of LQEQ-19 to DRG, in vitro
Text: (A) Typical average trace of 12 compound action potential recordings. The record was divided into 3 components according to the conduction velocities of Aβ fibres (6.2 m/s-2.1 m/s), Ad fibres (2.1 m/s-0.8 m/s) and C fibres (0.8 m/s-0.1 m/s) fibres. (B) Maximum amplitudes of Aβ, Ad and C components of compound action potentials. (C) Area under the curve of Aβ, Ad and C compound action potential. Bold line on the X axis indicates LQEQ-19 application
as §4

[5] = test system: p38 MAP kinase in spinal microglia; conditions: mice injected intrathecally; cited from earlier work
[6] = test system: p38 MAP kinase in spinal microglia and BV-2 microglial cell line; conditions: cited from earlier work
pain behaviour = conditions: in vivo; cited from earlier work
[7] = test system: mechanical and cold sensitivity; conditions: intrathecal application to rats; cited from earlier work
hippocampal neurons = conditions: cited from earlier work
spinal cord slices = conditions: cited from earlier work

**Q.** With “cross-linker-conjugated TLQP-21: TLQP-21 with N-terminal biotin and extra C-terminal cysteine, conjugated to Sulfo-EMCS cross-linker (TLQPPASSRRRHFHHALPPARC; cyclised or stapled)” as the molecule, how does the “increase in intracellular Ca2+ levels” value [1] read?
**A.** The value was “able to induce an increase in intracellular Ca2+ levels similar to the wild type TLQP-21”.

**Q.** For “Thr-Leu-Gln-Pro-Pro-Ala-Ser-Ser-Arg-Arg-Arg-His-Phe-His-His-Ala-Leu-Pro-Pro-Ala-Arg [TLQP-21]”, which “duration of the effect on paw withdrawal threshold after injection” value (paw withdrawal threshold; injection of macrophages stimulated by TLQP-21) is on record?
**A.** The value was 48 h.

**Q.** What about the tactile allodynia (paw withdrawal threshold; macrophages treated with 100 nM peptide 24 hours, 35,000 cells in 50 μl into left hind paw, 1, 2, 3 days, n=9) of the same molecule?
**A.** The tactile allodynia was “produced tactile allodynia”.

**Q.** And the paw withdrawal threshold (paw withdrawal threshold; macrophages treated with 100 nM peptide for 24 hours, 80,000 cells injected intraplantarly, Von Frey)?
**A.** Its paw withdrawal threshold is “caused reduction of paw withdrawal thresholds at 24 and 48 hours after injection; also recorded: decreased markedly”.

**Q.** What about the “increase in intracellular Ca2+” value (cultured brain microglia) of the same molecule?
**A.** The value was “causes an increase in intracellular Ca2+; also recorded: responded to TLQP-21 similarly to macrophages”.

**Q.** What about the “de-sensitisation to subsequent TLQP-21 stimulation” value ([1]; 100 nM TLQP-21, macrophages, ATP response not desensitised) of the same molecule?
**A.** Its value is “densensitises macrophage to further TLQP-21 stimulation; also recorded: induced de-sensitisation to subsequent TLQP-21 treatments”.

**Q.** And the “increase in intracellular Ca2+ levels” value [1]?
**A.** Its value is “elicits an increase in intracellular Ca2+ levels; also recorded: drives an increase in intracellular Ca2+; also recorded: causes intracellular Ca^2+ increase; also recorded: caused transient increase in intracellular Ca2+ levels”.

**Q.** And the “intracellular Ca2+ increase when extracellular Ca2+ is depleted” value ([1]; macrophages, extracellular Ca2+ depleted)?
**A.** Its value is “still observed”.

**Q.** What about the “binding to the receptor gC1qR” value (gC1qR) of the same molecule?
**A.** The value was “co-purified with TLQP-21; also recorded: binds to the receptor gC1qR”.

**Q.** What about the Ccl11 upregulated [2] of the same molecule?
**A.** Its Ccl11 upregulated is 2.78 fold.

**Q.** What about the Cxcl9 downregulated [2] of the same molecule?
**A.** The Cxcl9 downregulated was 2.28 fold.

**Q.** With “LQEQEELENYIEHVLLHRP [VGF-derived peptide]” as the molecule, how does the “time of development of hypersensitivity after injection” value [3] read?
**A.** Its value is 10 min.

**Q.** What about the “hypersensitivity to mechanical stimuli” value ([3]; ipsilateral hind limb, p≦0.001 vs vehicle) of the same molecule?
**A.** The value was “associated with a hypersensitivity to mechanical stimuli; also recorded: causes a mechanical hypersensitivity in vivo”.

**Q.** What about the “C-fibre component of compound action potentials (amplitude, area under the curve); sensitisation of nociceptors” value [4] of the same molecule?
**A.** Its value is “sensitises nociceptors in vitro; also recorded: significantly increases both the amplitude and the area under the curve”.

**Q.** What about the “phosphorylated p38 MAP kinase in spinal microglia” value [5] of the same molecule?
**A.** The value was “increase of phosphorylated p38 MAP kinase”.

**Q.** What about the “p38 MAP kinase phosphorylation” value [6] of the same molecule?
**A.** The value was “causes P38 MAP kinase phosphorylation; also recorded: induces p38 MAP kinase phosphorylation”.

**Q.** And the “pain behaviour in the formalin test” value (pain behaviour)?
**A.** Its value is “enhances pain behaviour”.

B1: Thr-Leu-Gln-Pro-Pro-Ala-Ser-Ser-Arg-Arg-Arg-His-Phe-His-His-Ala-Leu-Pro-Pro-Ala-Arg-His-His-Pro-Asp-Leu-Glu-Ala-Gln-Ala-Arg-Arg-Ala-Gln-Glu-Glu-Ala-Asp-Ala-Glu-Glu-Arg-Arg-Leu-Gln-Glu-Gln-Glu-Glu-Leu- … (peptide)
chain: TLQPPASSRRRHFHHALPPARHHPDLEAQARRAQEEADAEERRLQEQEELENYIEHVLLHRP
modifications: TLQP-62 peptide from VGF
notes: VGF-derived peptide
**Q.** Which results are given for B1?
**A.** pain behaviour (mechanical and cold allodynia) [7]: induces pain behaviour (cold and mechanical hypersensitivity); also recorded: long-lasting mechanical and cold behavioural allodynia; synaptic activity (hippocampal neurons): increase synaptic activity; frequency of spontaneous excitatory post synaptic currents (spinal cord slices): increase in the frequency of spontaneous excitatory post synaptic currents
